The nature of assay [1]: Luminescence Cell-Based Dose Confirmation HTS to Identify Activators of 5'UTR Stem-Loop Driven Alpha-Synuclein mRNA Translation in H4 Neuroglioblastoma Cells. [Related pubchem assays: 1829 (Project Summary), 1814 (Primary HTS)]. Type of assay: functional.
A short description of assay [2]: Luminescence Cell-Based Dose Response HTS to Identify Activators of Luciferase Translation or Activity in H4 […] Cells. [Related pubchem assays: 1829 (Project Summary), 1814 (Primary HTS)]. Type of assay: functional.
Assay [3] deals with H4. The assay can be described thus: Luminescence Cell-Based Dose Response HTS to Identify Activators of 5'UTR Stem-Loop Driven Prion Protein mRNA Translation in H4 Neuroglioblastoma Cells. [Related pubchem assays: 1829 (Project Summary), 1814 (Primary HTS)]. Format: functional. To be noted: Homo sapiens.
Assay [4] deals with Nonstructural protein 1 (Influenza A virus, UniProt Q194T2). Type of assay: functional, Influenza A virus (A/California/07/2009(H1N1)).
Chain of Nonstructural protein 1 (Q194T2 whole entry): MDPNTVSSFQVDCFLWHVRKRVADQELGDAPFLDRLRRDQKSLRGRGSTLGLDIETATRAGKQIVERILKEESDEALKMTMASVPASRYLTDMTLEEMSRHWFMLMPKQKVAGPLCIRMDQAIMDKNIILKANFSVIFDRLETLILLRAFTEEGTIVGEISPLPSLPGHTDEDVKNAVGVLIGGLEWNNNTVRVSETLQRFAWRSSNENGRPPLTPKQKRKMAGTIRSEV
Assay [5] concerns the target T1, Coagulation factor XII (Homo sapiens, UniProt P00748).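 Further: activated factor XIIa alpha cleaving a fluorogenic AMC peptide substrate; inhibitor potency from loss of enzyme activity.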
T1 sequence (P00748 whole entry): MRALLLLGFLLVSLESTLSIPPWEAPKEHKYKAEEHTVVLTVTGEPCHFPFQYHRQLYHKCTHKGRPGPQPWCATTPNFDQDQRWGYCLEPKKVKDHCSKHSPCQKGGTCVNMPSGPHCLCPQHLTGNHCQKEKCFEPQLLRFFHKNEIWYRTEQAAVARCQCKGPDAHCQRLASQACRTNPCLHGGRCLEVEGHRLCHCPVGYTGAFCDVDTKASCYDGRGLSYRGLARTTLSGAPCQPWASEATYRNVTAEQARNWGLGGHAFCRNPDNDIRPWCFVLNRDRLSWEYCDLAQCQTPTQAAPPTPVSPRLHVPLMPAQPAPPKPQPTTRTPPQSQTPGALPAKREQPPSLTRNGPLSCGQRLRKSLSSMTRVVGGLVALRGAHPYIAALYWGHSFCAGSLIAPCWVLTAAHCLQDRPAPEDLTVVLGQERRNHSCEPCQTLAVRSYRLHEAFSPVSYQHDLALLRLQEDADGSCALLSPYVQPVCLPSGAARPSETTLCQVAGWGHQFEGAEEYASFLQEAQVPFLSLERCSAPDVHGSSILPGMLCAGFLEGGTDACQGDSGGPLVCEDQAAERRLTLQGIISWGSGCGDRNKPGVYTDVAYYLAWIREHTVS
Format: functional.

Assay [6] has as its target T2, Short transient receptor potential channel 4 (Mus musculus, UniProt Q9QUQ5).
T2 sequence (Q9QUQ5 whole entry): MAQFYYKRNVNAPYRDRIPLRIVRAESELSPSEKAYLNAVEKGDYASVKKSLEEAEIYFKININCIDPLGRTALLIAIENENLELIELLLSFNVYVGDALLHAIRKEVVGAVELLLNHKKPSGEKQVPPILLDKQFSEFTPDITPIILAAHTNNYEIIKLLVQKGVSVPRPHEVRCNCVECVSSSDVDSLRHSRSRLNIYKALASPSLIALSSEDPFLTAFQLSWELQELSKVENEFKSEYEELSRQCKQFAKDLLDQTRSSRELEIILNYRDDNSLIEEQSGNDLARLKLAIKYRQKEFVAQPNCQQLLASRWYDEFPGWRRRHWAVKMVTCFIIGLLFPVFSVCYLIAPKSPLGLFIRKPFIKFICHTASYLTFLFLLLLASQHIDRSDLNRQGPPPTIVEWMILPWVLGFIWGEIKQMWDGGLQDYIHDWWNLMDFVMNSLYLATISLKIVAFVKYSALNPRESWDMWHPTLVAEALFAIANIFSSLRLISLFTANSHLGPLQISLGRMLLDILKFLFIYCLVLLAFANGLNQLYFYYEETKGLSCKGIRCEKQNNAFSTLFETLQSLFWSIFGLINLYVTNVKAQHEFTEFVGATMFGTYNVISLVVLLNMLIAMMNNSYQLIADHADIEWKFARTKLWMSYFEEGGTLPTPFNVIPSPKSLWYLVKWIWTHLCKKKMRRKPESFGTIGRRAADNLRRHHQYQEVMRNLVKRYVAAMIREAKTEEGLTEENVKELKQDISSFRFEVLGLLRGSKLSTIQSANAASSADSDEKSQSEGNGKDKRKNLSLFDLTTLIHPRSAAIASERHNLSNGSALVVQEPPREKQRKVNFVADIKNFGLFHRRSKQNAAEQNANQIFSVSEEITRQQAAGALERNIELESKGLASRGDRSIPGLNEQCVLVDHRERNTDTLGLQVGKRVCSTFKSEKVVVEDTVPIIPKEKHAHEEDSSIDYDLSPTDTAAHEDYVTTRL
Kind of assay: calcium entry via TRPC4 opening agents – cell-based, HEK293 TRPC4/mu-opioid, Fluo-4 calcium, dose response (AID 434937). Type of assay: functional.

Assay [7] has as its target T3, Corticotropin-releasing factor receptor 2/Corticotropin-releasing factor-binding protein (Homo sapiens, UniProt P24387+Q13324).
T3 sequence (Q13324 whole entry): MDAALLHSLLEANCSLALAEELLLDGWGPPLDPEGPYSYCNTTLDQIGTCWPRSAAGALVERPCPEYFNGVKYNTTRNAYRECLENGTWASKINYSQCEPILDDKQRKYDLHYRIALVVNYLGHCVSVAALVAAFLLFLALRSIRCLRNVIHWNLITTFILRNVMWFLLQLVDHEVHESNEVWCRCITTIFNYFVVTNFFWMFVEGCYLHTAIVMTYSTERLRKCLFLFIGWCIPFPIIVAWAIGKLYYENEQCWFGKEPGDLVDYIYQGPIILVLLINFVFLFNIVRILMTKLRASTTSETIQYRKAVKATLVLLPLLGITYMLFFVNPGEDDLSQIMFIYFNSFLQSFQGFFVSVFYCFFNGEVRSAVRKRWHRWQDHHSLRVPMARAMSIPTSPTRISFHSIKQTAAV
T3 sequence (P24387 whole entry): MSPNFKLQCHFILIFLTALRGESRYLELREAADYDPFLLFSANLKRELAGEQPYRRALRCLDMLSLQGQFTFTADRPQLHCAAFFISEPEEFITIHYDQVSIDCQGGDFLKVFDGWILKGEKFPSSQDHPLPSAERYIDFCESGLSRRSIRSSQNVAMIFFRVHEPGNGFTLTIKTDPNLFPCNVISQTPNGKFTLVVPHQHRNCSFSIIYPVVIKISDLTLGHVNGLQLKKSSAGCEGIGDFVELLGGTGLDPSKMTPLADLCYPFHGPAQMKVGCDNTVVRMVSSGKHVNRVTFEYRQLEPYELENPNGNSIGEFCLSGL
Kind of assay: activators of CRF receptor 2 with binding protein – uHTS hits, confirmation (AID 602473). Format: functional. Conditions: read-out: EC50_Mean.

Assay [8] has as its system HeLa. The assay can be described thus: ATP-based viability loss in HeLa cells – cell-based, CellTiter-Glo luminescence, cherry-pick samples, cytotoxicity control for MITF activator project, dose response (AID 540259). Type of assay: functional. Conditions: Homo sapiens. On the technique in general: In ATP-based viability assays light output follows the ATP content of the culture.

The target in assay [9] is Glucose-6-phosphate 1-dehydrogenase (Homo sapiens, UniProt P11413). The assay can be described thus: inhibition of Homo sapiens G6PD, dose series – biochemical, fluorescence, selectivity assay for P. falciparum G6PD inhibitor project, dose response (AID 504792). Type of assay: functional.
Chain of Glucose-6-phosphate 1-dehydrogenase (P11413 whole entry, the tested form may be a part): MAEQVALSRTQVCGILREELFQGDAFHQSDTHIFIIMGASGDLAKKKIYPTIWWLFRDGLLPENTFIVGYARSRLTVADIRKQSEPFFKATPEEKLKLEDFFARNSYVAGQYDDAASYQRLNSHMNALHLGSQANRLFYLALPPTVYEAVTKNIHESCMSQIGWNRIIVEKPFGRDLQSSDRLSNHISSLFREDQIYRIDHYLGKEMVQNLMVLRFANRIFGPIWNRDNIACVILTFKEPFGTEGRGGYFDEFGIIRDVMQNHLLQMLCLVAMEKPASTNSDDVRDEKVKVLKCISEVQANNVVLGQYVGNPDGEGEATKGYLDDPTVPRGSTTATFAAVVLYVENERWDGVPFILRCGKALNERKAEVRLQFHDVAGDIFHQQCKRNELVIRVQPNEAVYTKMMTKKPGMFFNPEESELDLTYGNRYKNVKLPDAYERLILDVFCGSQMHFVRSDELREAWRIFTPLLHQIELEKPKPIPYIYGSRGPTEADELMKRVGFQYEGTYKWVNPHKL
Assay [10] addresses T4, Carboxy-terminal domain RNA polymerase II polypeptide A small phosphatase 1 (Homo sapiens, UniProt Q9GZU7).
T4 sequence (Q9GZU7 whole entry): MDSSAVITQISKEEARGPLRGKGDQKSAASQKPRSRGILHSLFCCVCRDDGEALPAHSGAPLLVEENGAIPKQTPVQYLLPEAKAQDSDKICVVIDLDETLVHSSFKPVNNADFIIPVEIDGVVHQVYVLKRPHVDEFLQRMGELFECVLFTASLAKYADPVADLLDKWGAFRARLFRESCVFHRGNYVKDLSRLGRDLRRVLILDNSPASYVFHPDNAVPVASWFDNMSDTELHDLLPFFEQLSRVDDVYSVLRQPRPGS
Kind of assay: CTDSP1 inhibitors, concentration-response, biochemical, absorbance readout, ultra-high-throughput screen actives (AID 540297). Format: functional.

Assay [11] can be described thus: luciferase reporter signal suppression in cells – H4 neuroglioma cells, luminescence, dose response (AID 1990). Type of assay: functional, cell-based.
Assay [12] in a line: Luminescence Cell-Based Dose Response HTS to Identify Inhibitors of 5'UTR Stem-Loop Driven Prion Protein mRNA Translation in H4 Neuroglioblastoma Cells. [Related pubchem assays: 1827 (Project Summary), 1813 (Primary HTS)]. Type of assay: functional.
Assay [13] in a line: alpha-synuclein stem-loop luciferase translation blockers – H4 neuroglioma cells, luminescence, confirmation (AID 1988). Type of assay: functional, cell-based.
Assay [14] concerns the target T5, Endoribonuclease toxin MazF (Escherichia coli K-12, UniProt P0AE70).
T5 sequence (P0AE70 whole entry): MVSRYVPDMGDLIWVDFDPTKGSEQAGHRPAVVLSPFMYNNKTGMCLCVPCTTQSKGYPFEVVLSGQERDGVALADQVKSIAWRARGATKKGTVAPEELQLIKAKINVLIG
The assay can be described thus: activation of MazEF endoribonuclease cleavage – biochemical, fluorescence, single-stranded RNA substrate, uHTS hits, dose response (AID 588481). Type of assay: functional.

Assay [15] has as its target T5, Endoribonuclease toxin MazF. Kind of assay: substrate-only fluorescence increase artefacts – biochemical, single-stranded RNase substrate, counter-screen for MazEF activator project, dose response (AID 588502). Format: functional.
The target in assay [16] is Genome polyprotein (dengue virus type 2, UniProt P29990). The assay can be described thus: flavivirus cap methylation enzyme inhibition – biochemical, confirmation dose response, primary screen (AID 588689). Format: functional.
Chain of Genome polyprotein (P29990 2492-3391 limits assumed): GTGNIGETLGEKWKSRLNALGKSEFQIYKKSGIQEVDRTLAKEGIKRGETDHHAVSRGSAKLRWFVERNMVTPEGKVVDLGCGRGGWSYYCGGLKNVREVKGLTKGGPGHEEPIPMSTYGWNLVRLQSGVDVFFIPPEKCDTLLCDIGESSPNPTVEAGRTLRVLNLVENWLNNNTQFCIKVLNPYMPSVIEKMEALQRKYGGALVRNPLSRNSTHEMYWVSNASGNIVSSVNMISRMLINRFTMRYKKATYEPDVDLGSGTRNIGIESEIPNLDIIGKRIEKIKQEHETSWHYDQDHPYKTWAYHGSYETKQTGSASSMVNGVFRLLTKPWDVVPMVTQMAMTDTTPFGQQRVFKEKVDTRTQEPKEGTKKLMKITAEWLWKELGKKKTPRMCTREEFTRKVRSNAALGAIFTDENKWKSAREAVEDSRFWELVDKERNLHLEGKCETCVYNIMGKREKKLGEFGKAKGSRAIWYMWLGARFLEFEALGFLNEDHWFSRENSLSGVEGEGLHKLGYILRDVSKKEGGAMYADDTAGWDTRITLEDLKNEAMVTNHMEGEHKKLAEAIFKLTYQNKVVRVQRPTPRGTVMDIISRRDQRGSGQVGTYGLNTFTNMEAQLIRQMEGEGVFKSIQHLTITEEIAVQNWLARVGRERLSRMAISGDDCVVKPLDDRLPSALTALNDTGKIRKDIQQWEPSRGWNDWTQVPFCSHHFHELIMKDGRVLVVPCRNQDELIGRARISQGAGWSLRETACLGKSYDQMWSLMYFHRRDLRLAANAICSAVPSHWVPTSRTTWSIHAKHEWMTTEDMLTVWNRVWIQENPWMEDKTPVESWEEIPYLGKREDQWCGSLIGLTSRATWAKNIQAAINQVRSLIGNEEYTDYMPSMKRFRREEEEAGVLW
In assay [17] the target is T6, Sentrin-specific protease 1 (Homo sapiens, UniProt Q9P0U3).
T6 sequence (Q9P0U3 whole entry): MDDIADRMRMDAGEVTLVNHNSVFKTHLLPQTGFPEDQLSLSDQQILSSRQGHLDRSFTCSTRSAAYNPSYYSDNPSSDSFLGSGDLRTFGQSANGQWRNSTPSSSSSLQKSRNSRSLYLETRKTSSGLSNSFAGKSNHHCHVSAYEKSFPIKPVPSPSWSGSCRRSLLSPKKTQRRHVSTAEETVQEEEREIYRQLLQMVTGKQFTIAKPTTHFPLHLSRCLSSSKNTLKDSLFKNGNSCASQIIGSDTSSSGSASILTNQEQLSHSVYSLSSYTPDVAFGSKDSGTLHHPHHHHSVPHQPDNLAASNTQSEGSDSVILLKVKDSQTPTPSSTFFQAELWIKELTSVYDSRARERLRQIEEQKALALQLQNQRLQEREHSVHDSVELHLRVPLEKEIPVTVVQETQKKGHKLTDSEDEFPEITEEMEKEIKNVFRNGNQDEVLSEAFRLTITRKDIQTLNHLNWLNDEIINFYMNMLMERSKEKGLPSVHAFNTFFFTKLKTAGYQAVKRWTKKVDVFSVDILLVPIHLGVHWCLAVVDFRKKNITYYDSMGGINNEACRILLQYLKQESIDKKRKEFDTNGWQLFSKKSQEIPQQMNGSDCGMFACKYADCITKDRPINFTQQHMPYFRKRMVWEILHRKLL
The assay can be described thus: SENP1 catalytic domain blockers, concentration series – biochemical, kinetic FRET, dose response (AID 651697). Type of assay: functional. Conditions: read-out: IC50_Mean.

In assay [18] the target is T6, Sentrin-specific protease 1. Kind of assay: Dose response confirmation of small molecule inhibitors of the catalytic domain of the SUMO protease, SENP1 in a FRET assay. Format: functional. Conditions: read-out: IC50_Mean.

The source made the active and inactive calls.

For orientation: AC50 means the concentration at which the activity in the assay is half-maximal.

As to `C[n+]1c(/C=C/c2ccc(O)cc2)ccc2ccccc21`, the EC50 is 12.5 µM (active) in assay [1], 5.65 µM (active) in assay [2] and 7.6 µM (active) in assay [3]. For the same molecule, the IC50 in [4] is > 100 µM (active).
For the molecule `O=C(COC(=O)c1ccccc1Br)Nc1ccc(F)cc1`, in assay [5], the IC50 was > 50 µM (inactive).
Take `Cc1nc2ccccn2c1P(=S)(N1CCCCC1)N1CCCCC1`: the EC50 in [6] was 5.96 µM (active); in assay [7], 23.7 µM (active).
With `COc1ccc(CN(C(=O)c2snc(C(N)=O)c2N)C(C(=O)NC(C)(C)C)c2ccco2)cc1` (stereo not drawn), in [5], the IC50 is > 50 µM (inactive).
As for `CCCN(CCC)c1ncnc2c1cnn2-c1ccc(OC)cc1`, the concentration at half-maximal activity (AC50) in assay [8] was 46.3 µM (active).
With `CC(C1CC2CCC1C2)N1CC(=O)C(c2nc3ccccc3[nH]2)=C1N` (stereo not drawn), in [5], the IC50 was > 50 µM (inactive).
Consider `Cc1cc(N=NC(=O)c2ccccc2O)c2ccccc2c1O`, for which the IC50 in assay [9] was > 80 µM (inactive); in assay [10], 5.15 µM (active).
As to `Cc1cc(Br)c2[nH]c3c(c2c1)CCCC3=O`, the IC50 in [5] was > 50 µM (inactive).
Regarding `Cc1cccc(C(=O)Oc2ccc(/C=N/O)cc2)c1`, the AC50 in [8] is 41 µM (active).
In the case of `COc1cc(/C=N/Nc2nncn2N)ccc1OCc1c(C)no[n+]1[O-]`, the IC50 in [9] was 56.3 µM (inactive).
With `COc1ccc(OC)c(/C=N/N(C)c2ccccc2)c1`, in [8], the concentration at half-maximal activity (AC50) was 44.7 µM (active).
Take `Cc1ccsc1/C=N/NC(=O)Nc1ccccc1`: the concentration at half-maximal activity (AC50) in assay [8] was 60.6 µM (active).
In the case of `CC1(C)OC(=C/C=N/c2ccc(Cl)cc2)OC1(C)C`, the EC50 in [11], in assay [12] and in [13] was > 120 µM (not active) each time. Besides, in assay [5], the IC50 is > 50 µM (inactive).
Take `Cn1c(=O)c2[nH]c(-c3ccccc3)c(O)c2n(C)c1=O`: the IC50 is > 80 µM (inactive) in [9], 18.5 µM (active) in [16], 5.99 µM (active) in assay [17] and 5.27 µM (active) in assay [18]. The EC50 in [14] is 33.8 µM (inactive); in assay [15] it was 23.3 µM (inactive); in assay [7], > 53 µM (inactive).

For the origin of these results see ChEMBL document CHEMBL1201862, “PubChem BioAssay data set” (2004).
